Results on 26 compounds are retold here after PubChem BioAssay AID330 (DTP/NCI, 2004).

Where “and” joins values, the source holds several entries; their conditions need not be identical. Equal values may be shown once. Inconclusive results and toxic doses are left out.

The subject of the test is P388 leukemia ip, CD2F1 mice, survival T/C. As to the kind of experiment: NCI In Vivo Anticancer Drug Screen. Data for tumor model P388 Leukemia (intraperitoneal) in CD2F1 (CDF1) mice. To be noted: endpoint: median survival time, higher = longer survival. Summed up:
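Mice carrying the transplanted tumor received test compound or vehicle. Survival was recorded in each group, and the value is the treated-group measurement divided by that of the vehicle-treated control group.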

Setting [1] is: dose: 25.0 mg/kg/injection, schedule: Q04DX003 (ip), vehicle: saline with Tween-80.
Where [2] appears, read: dose: 50.0 mg/kg/injection, schedule: Q04DX003 (ip), vehicle: saline with Tween-80.
Where [3] appears, read: dose: 100.0 mg/kg/injection, schedule: Q04DX003 (ip), vehicle: saline with Tween-80.
Setting [4] is: dose: 50.0 mg/kg/injection, schedule: Q01DX005 (ip), vehicle: saline with Tween-80.
The mark [5] stands for this setting: dose: 100.0 mg/kg/injection, schedule: Q01DX005 (ip), vehicle: saline with Tween-80.
The mark [6] stands for this setting: dose: 5.0 mg/kg/injection, schedule: Q01DX009 (ip), vehicle: Klucel (hydroxypropylcellulose) (HPC).
The mark [7] stands for this setting: dose: 10.0 mg/kg/injection, schedule: Q01DX009 (ip), vehicle: Klucel (hydroxypropylcellulose) (HPC).
Setting [8] is: dose: 200.0 mg/kg/injection, schedule: Q04DX003 (ip), vehicle: saline with Tween-80.
[9] abbreviates: dose: 50.0 mg/kg/injection, schedule: Q01DX005 (ip), vehicle: Klucel (hydroxypropylcellulose) (HPC).
Setting [10] is: dose: 100.0 mg/kg/injection, schedule: Q01DX005 (ip), vehicle: Klucel (hydroxypropylcellulose) (HPC).
The mark [11] stands for this setting: dose: 200.0 mg/kg/injection, schedule: Q01DX005 (ip), vehicle: Klucel (hydroxypropylcellulose) (HPC).
Where [12] appears, read: dose: 60.0 mg/kg/injection, schedule: Q01DX005 (ip), vehicle: saline with Tween-80.
[13] abbreviates: dose: 120.0 mg/kg/injection, schedule: Q01DX005 (ip), vehicle: saline with Tween-80.
[14] abbreviates: dose: 240.0 mg/kg/injection, schedule: Q01DX005 (ip), vehicle: saline with Tween-80.
Where [15] appears, read: dose: 100.0 mg/kg/injection, schedule: Q01DX001 (ip), vehicle: Klucel (hydroxypropylcellulose) (HPC).
Setting [16] is: dose: 200.0 mg/kg/injection, schedule: Q01DX001 (ip), vehicle: Klucel (hydroxypropylcellulose) (HPC).
The mark [17] stands for this setting: dose: 50.0 mg/kg/injection, schedule: Q01DX009 (ip), vehicle: Klucel (hydroxypropylcellulose) (HPC).
The mark [18] stands for this setting: dose: 100.0 mg/kg/injection, schedule: Q01DX009 (ip), vehicle: Klucel (hydroxypropylcellulose) (HPC).
[19] abbreviates: dose: 200.0 mg/kg/injection, schedule: Q01DX009 (ip), vehicle: Klucel (hydroxypropylcellulose) (HPC).
Setting [20] is: dose: 100.0 mg/kg/injection, schedule: Q04DX003 (ip), vehicle: saline.
The mark [21] stands for this setting: dose: 200.0 mg/kg/injection, schedule: Q04DX003 (ip), vehicle: saline.
Where [22] appears, read: dose: 400.0 mg/kg/injection, schedule: Q04DX003 (ip), vehicle: saline.

`CC(C)=C/C(C)=N/Nc1ccc([N+](=O)[O-])cc1[N+](=O)[O-]`: the T/C under setting [1] was 100 % of control, the T/C under setting [2] was 100 % of control and the T/C under setting [3] was 100 % of control.
Regarding `CC(=O)C(C(=O)Nc1cccc2ccccc12)C(C)=NCCN=C(C)C(C(C)=O)C(=O)Nc1cccc2ccccc12.[Cu]` (stereo not given), the T/C under setting [4] is 94 % of control; the T/C under setting [5] is 96 % of control; the T/C (dose: 200.0 mg/kg/injection, schedule: Q01DX005 (ip), vehicle: saline with Tween-80) is 96 % of control.
As to `O=C(O)/C=C/S(=O)(=O)c1ccc(Cl)cc1`, the T/C under setting [6] is 89 % of control; the T/C under setting [7] was 98 % of control; the T/C (dose: 20.0 mg/kg/injection, schedule: Q01DX009 (ip), vehicle: Klucel (hydroxypropylcellulose) (HPC)) is 96 % of control; the T/C (dose: 40.0 mg/kg/injection, schedule: Q01DX009 (ip), vehicle: Klucel (hydroxypropylcellulose) (HPC)) is 99 % of control.
`CC1=NS(C)(=O)=c2ccccc2=N1` (stereo not given): the T/C under setting [3] was 105 % of control; the T/C under setting [8] is 105 % of control; the T/C (dose: 400.0 mg/kg/injection, schedule: Q04DX003 (ip), vehicle: saline with Tween-80) is 106 % of control.
For `CCc1nc(N)nc(N)c1-c1ccc2c(c1)nnn2C`, the T/C was 104 % of control under setting [9], 104 % of control under setting [10] and 95 % of control under setting [11].
As to `C#CCN(C)Cc1cc(OC)c(OC)c(OC)c1`, the T/C (dose: 12.5 mg/kg/injection, schedule: Q01DX009 (ip), vehicle: saline) is 102 % of control; the T/C (dose: 25.0 mg/kg/injection, schedule: Q01DX009 (ip), vehicle: saline) is 94 % of control; the T/C (dose: 50.0 mg/kg/injection, schedule: Q01DX009 (ip), vehicle: saline) was 102 % of control and 86 % of control; the T/C (dose: 100.0 mg/kg/injection, schedule: Q01DX009 (ip), vehicle: saline) is 95 % of control and 96 % of control.
In the case of `O=S1(=O)CC2(N3CCOCC3)C3CCC(C3)C21` (stereo not given), the T/C is 99 % of control and 101 % of control under setting [2]; 100 % of control and 104 % of control under setting [3]; 101 % of control and 104 % of control under setting [8].
With `CC(=O)OC1C=CC2Oc3ccc(C)cc3C1(C)O2` (stereo not given), the T/C under setting [12] was 93 % of control, the T/C under setting [13] was 106 % of control and the T/C under setting [14] is 101 % of control.
With `COC1=CC(=N/Cl)/C=CC/1=N/Cl`, the T/C was 115 % of control (dose: 6.25 mg/kg/injection, schedule: Q01DX005 (ip), vehicle: saline); 110 % of control (dose: 12.5 mg/kg/injection, schedule: Q01DX005 (ip), vehicle: saline); 115 % of control (dose: 25.0 mg/kg/injection, schedule: Q01DX005 (ip), vehicle: saline).
On to `CC1(C)OC(c2ccccc2)=CC1=O`, for which the T/C is, setting by setting: (dose: 100.0 mg/kg/injection, schedule: Q04DX002 (ip), vehicle: saline with Tween-80) 101 % of control; (dose: 200.0 mg/kg/injection, schedule: Q04DX002 (ip), vehicle: saline with Tween-80) 101 % of control.
Regarding `CN(c1ccccc1)P(=O)(N1CC1)N1CC1`, the T/C runs as follows: (dose: 12.5 mg/kg/injection, schedule: Q01DX009 (ip), vehicle: saline sonified) 200 % of control; under setting [1], 160 % of control and 195 % of control; (dose: 37.5 mg/kg/injection, schedule: Q04DX003 (ip), vehicle: saline with Tween-80) 186 % of control.
On to `CCOC(=O)NC(=O)CNc1ncc([N+](=O)[O-])s1`, for which the T/C by setting is: under setting [15], 100 % of control; under setting [16], 108 % of control.
Consider `S=C(NCc1cccnc1)Nc1ccc(Cl)c(Cl)c1`, for which the T/C is, setting by setting: under setting [17], 104 % of control; under setting [18], 108 % of control; under setting [19], 104 % of control.
`CC1(C)Oc2cc3oc(=O)ccc3c3c2C2C1CCC(C)(O3)C2O` (stereo not given): the T/C is, setting by setting: under setting [9], 102 % of control; under setting [10], 96 % of control; under setting [11], 105 % of control.
For the compound `S=c1[nH]c2ccc(Cl)cc2s1`, the T/C runs as follows: under setting [17], 98 % of control; under setting [18], 101 % of control; under setting [19], 90 % of control; (dose: 400.0 mg/kg/injection, schedule: Q01DX009 (ip), vehicle: Klucel (hydroxypropylcellulose) (HPC)) 95 % of control.
In the case of `NC(C(=O)O)c1cc(=O)[nH]o1` (stereo not given), the T/C runs as follows: (dose: 2.5 mg/kg/injection, schedule: Q01DX009 (ip), vehicle: Klucel (hydroxypropylcellulose) (HPC)) 98 % of control; under setting [6], 93 % of control; under setting [7], 101 % of control.
Take `CN(C)C(C#C[Si](C)(C)C)CO` (stereo not given): the T/C is 104 % of control under setting [20], 100 % of control under setting [21] and 97 % of control under setting [22].
For `CCc1nc(NCCCCCCCCNc2nc(C)c(-c3ccccc3O)c(CC)n2)nc(C)c1-c1ccccc1O` the same measures were 93 % of control, 94 % of control and 86 % of control.
Turning to `CC(C)(C)C(=O)Oc1cc2c(cc1OC(=O)C(C)(C)C)C(c1ccccc1)CNCC2` (stereo not given), the T/C is 96 % of control (dose: 25.0 mg/kg/injection, schedule: Q01DX009 (ip), vehicle: saline with Tween-80) and 98 % of control (dose: 50.0 mg/kg/injection, schedule: Q01DX009 (ip), vehicle: saline with Tween-80).
In the case of `NC(CCC(=O)NC(CS)C(=O)NCC(=O)O)C(=O)O.[CH2-]CCC.[CH2-]CCC.[CH2-]CCC.[CH2-]CCC.[Ti+4]` (stereo not given), the T/C reads like this: under setting [4], 103 % of control; under setting [5], 89 % of control.
For the compound `Cc1cccc(NC(=O)N(C(C)C)C(C)C)c1`, the T/C (dose: 60.0 mg/kg/injection, schedule: Q01DX005 (ip), vehicle: Klucel + Tween-80) was 100 % of control; the T/C (dose: 120.0 mg/kg/injection, schedule: Q01DX005 (ip), vehicle: Klucel + Tween-80) is 97 % of control; the T/C (dose: 240.0 mg/kg/injection, schedule: Q01DX005 (ip), vehicle: Klucel + Tween-80) was 89 % of control.
On to `COc1cc(CSc2ccccc2)cc(OC)c1N`, for which the T/C is, setting by setting: under setting [9], 95 % of control; under setting [10], 100 % of control; under setting [11], 99 % of control.
As to `Cc1ccc(/C(=N/NS(=O)(=O)c2ccc(C)cc2)C(C)c2ccccc2)cc1` (stereo not given), the T/C by setting is: under setting [15], 99 % of control; under setting [16], 100 % of control; (dose: 400.0 mg/kg/injection, schedule: Q01DX001 (ip), vehicle: Klucel (hydroxypropylcellulose) (HPC)) 99 % of control.
For `N#CC(N)(C#N)C(N)=O`, the T/C (dose: 100.0 mg/kg/injection, schedule: Q01DX001 (ip), vehicle: saline) was 101 % of control; the T/C (dose: 200.0 mg/kg/injection, schedule: Q01DX001 (ip), vehicle: saline) was 101 % of control; the T/C (dose: 400.0 mg/kg/injection, schedule: Q01DX001 (ip), vehicle: saline) is 103 % of control.
With `c1ccc(C(=C2C(=C(c3ccccc3)c3ccccc3)c3nc4ccccc4nc32)c2ccccc2)cc1`, the T/C is 90 % of control (dose: 7.5 mg/kg/injection, schedule: Q01DX005 (ip), vehicle: saline with Tween-80); 88 % of control (dose: 15.0 mg/kg/injection, schedule: Q01DX005 (ip), vehicle: saline with Tween-80); 86 % of control under setting [12]; 87 % of control under setting [13]; 90 % of control under setting [14].
As to `CC1CCC2C(C)C(=O)OC3OC4(C)CCC1C32OO4` (stereo not given), the T/C is, setting by setting: (dose: 2.5 mg/kg/injection, schedule: Q01DX005 (ip), vehicle: saline + alcohol) 105 % of control; (dose: 5.0 mg/kg/injection, schedule: Q01DX005 (ip), vehicle: saline + alcohol) 108 % of control; (dose: 10.0 mg/kg/injection, schedule: Q01DX005 (ip), vehicle: saline + alcohol) 108 % of control; (dose: 20.0 mg/kg/injection, schedule: Q01DX005 (ip), vehicle: saline + alcohol) 105 % of control.
